Literature values in US20090175941A1, “Tablet-form slow-release preparation for vertigo” (priority 2005, published 2009).

- solubility in water: approximately 2 mg/100 ml
Structure (SMILES): C(=C\c1ccccc1)/CN1CCN(C(c2ccccc2)c2ccccc2)CC1 [cinnarizine, 1-benzhydryl-4-trans-cinnamylpiperazine]
